Like-named read-outs stand apart in the source and are kept apart here.
Experiments:
[1] = in vitro; design: species or system HB2, HEK293; details: human, ccd841 cells
[2] = biological target: T1, BSA (Bos taurus, UniProt P02769); design: Intact protein LC/MS covalent labelling, fragments in pools of five, 200 uM each, 4 °C; details: 24 h, 4 °C, pool of five; 200 µM; covalent
T1 construct: gene ALB

[3] = biological target: T2, NUDT7 (Homo sapiens, UniProt P0C024); design: Intact protein LC/MS covalent labelling, fragments in pools of five, 200 uM each, 4 °C; details: 24 h, 4 °C, pool of five; 200 µM; covalent
T2 construct: residues 14-235, E. coli, pNIC28-Bsa4, N-terminal His6 tag removed by TEV, construct 26672 Da

[4] = biological target: T3, PCAF (Homo sapiens, UniProt Q92831); design: Intact protein LC/MS covalent labelling, fragments in pools of five, 200 uM each, 4 °C; details: 24 h, 4 °C, pool of five; 200 µM; covalent
T3 construct: gene KAT2B

[5] = biological target: T4, OTUB2 (OTUB2A) (Homo sapiens, UniProt Q96DC9); design: Intact protein LC/MS covalent labelling, fragments in pools of five, 200 uM each, 4 °C; details: 24 h, 4 °C, pool of five; 200 µM; covalent
T4 construct: full length residues 1-234, E. coli BL21(DE3)-R3, His tag removed by TEV, construct 27312 Da
T4 sequence (Q96DC9 1-234): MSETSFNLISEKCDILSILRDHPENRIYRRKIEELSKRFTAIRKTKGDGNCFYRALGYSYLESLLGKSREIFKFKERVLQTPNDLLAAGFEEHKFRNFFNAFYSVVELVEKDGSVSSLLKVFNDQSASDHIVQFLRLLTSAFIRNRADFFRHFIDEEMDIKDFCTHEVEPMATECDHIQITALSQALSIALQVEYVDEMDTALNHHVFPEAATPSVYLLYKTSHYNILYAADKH

[6] = biological target: T5, NNMT (hNNMT) (Homo sapiens, UniProt P40261); design: Intact protein LC/MS covalent labelling, fragments in pools of five, 200 uM each, 4 °C; details: 24 h, 4 °C, pool of five; 200 µM; covalent
T5 construct: wild type, N-terminal His6 tag kept (no cleavage described), E. coli, construct 31248 Da
T5 sequence (P40261 1-264): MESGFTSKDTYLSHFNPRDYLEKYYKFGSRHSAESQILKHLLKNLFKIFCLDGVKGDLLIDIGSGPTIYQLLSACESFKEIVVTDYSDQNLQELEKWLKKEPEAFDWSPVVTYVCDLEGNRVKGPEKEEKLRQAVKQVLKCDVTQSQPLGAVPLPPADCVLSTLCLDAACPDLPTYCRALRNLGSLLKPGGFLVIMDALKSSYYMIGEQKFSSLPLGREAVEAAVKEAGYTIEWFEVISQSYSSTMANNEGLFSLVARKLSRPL

[7] = in vitro; design: species or system CCD841, HEK293; details: human, hb2 cells, read-out: HB-2 Cells Viability (%)
[8] = in vitro; design: species or system HB2, CCD841; details: human, hek293 cells

T2 sequence (P0C024 14-235): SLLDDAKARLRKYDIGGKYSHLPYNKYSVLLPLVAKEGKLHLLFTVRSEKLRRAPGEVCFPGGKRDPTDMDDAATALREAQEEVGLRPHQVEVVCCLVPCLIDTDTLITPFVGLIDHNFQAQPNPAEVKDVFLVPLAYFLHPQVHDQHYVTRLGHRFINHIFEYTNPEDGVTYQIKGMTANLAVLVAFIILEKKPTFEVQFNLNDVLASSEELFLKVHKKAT
T1 sequence (P02769 whole entry, the tested form may be a part): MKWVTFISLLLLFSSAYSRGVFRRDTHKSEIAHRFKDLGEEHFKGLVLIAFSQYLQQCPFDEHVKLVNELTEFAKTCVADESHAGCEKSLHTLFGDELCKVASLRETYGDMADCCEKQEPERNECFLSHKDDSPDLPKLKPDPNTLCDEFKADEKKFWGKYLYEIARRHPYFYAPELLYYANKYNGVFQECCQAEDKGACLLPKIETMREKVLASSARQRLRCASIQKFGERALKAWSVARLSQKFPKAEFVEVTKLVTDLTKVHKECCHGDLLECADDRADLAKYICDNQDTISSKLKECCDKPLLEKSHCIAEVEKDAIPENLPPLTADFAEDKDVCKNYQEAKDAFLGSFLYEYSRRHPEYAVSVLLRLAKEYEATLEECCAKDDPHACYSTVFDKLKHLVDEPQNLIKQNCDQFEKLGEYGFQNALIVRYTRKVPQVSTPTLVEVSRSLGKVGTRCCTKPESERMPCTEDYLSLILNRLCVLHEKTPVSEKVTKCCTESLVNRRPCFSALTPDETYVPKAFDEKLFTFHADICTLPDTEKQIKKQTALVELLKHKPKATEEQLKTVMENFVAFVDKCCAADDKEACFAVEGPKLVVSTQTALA
T3 sequence (Q92831 whole entry, the tested form may be a part): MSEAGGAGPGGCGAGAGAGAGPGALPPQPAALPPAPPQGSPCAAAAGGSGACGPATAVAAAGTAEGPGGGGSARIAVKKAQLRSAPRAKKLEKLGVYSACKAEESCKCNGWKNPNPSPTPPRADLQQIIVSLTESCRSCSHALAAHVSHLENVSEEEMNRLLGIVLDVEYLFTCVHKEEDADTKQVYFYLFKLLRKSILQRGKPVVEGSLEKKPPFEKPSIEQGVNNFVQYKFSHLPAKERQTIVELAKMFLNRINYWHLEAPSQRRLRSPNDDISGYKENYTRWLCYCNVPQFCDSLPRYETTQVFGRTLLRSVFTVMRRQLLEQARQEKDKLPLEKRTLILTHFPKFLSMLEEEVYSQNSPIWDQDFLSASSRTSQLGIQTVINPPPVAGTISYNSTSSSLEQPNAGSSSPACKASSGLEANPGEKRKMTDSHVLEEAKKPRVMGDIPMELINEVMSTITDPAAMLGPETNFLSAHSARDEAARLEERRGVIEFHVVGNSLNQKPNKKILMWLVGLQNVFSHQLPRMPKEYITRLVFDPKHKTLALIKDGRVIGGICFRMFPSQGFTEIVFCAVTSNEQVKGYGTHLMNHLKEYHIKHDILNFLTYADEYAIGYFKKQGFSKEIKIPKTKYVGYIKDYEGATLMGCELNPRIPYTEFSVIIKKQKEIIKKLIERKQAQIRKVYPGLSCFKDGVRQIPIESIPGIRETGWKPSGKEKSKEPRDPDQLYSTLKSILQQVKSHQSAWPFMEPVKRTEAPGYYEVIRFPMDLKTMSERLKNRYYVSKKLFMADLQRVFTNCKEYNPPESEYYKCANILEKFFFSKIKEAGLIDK

| Structure (SMILES) | viability at 48 h, 10 µM [1] | BSA [2] | NUDT7 [3] | PCAF [4] | OTUB2 [5] | NNMT [6] | viability at 48 h, 10 µM [7] | viability at 48 h, 10 µM [8] |
| --- | --- | --- | --- | --- | --- | --- | --- | --- |
| CC1CCCC(C)N1C(=O)CCl (centres unmarked) [PCM-0102616] | 88.1% | 0 | 0 | 0 | 0 | 0.2 | 71% | 57.9% |
| C=CC(=O)N1CCC(NC(=O)OC(C)(C)C)CC1 [PCM-0102617] | 105% | 0 | 0 | 0 | 0 | 0.16 | 104% | 94.2% |
| CCc1cccc(C)c1NC(=O)CCl [PCM-0102618] | 106% | 0 | 0.11 | 0 | 0 | 0 | 98.3% | 101% |
| Cc1ccc(NC(=O)NC(=O)CCl)cc1 [PCM-0102623] | 82.5% | 0 | 0.11 | 0 | 0 | 0.71 | 69.1% | 80.6% |
| CC(C)C(C)(C#N)NC(=O)CCl (centres unmarked) [PCM-0102626] | 82.1% | 0 | 0 | 0 | 0 | 0 | 96.4% | 89.9% |
| CN(C)C(=O)CN(C)C(=O)CCl [PCM-0102632] | 114% | 0 | 0 | 0 | 0.14 | 0 | 102% | 89.7% |
| C=CC(=O)NC1(c2nnc3n2CCCC3)CCC1 [PCM-0102639] | 131% | 0 | 0 | 0 | 0 | 0 | 101% | 123% |
| C=CC(=O)N1CCc2sccc2C1c1cccs1 (centres unmarked) [PCM-0102640] | 115% | 0 | 0 | 0 | 0 | 0 | 97.9% | 98.7% |
| C=CC(=O)N1CCC(CS(C)(=O)=O)CC1 [PCM-0102651] | 108% | 0 | 0 | 0 | 0 | 0 | 105% | 100% |
| COc1ccc(NC(=O)CCl)cc1Cl [PCM-0102652] | 29.3% | 0 | 0.12 | 0 | 0.24 | 0.83 | 10% | 2.6% |
| Cl.O=C(CCl)Nc1cccnc1 [PCM-0102653] | 85.6% | 0 | 0 | 0 | 0 | 0 | 84.6% | 93.3% |
| O=C(CCl)N1CCC(C(=O)N2CCCC2)CC1 [PCM-0102655] | 78.5% | 0 | 0 | 0 | 0 | 0.17 | 94% | 87% |
| O=C(CCl)Nc1ccccc1 [PCM-0102658] | 67% | 0 | 0 | 0 | 0 | 0 | 72% | 56.1% |
